Data reported in ChEMBL document CHEMBL5257126, “Moderately lipophilic 2-(Het)aryl-6-dithioacetals, 2-phenyl-1,4-benzodioxane-6-dithioacetals and 2-phenylbenzofuran-5-dithioacetals: Synthesis and primary evaluation as potential antidiabetic AMPK-activators” (Bioorg Med Chem, 2023).
Each block holds one molecule with its values, some of them ahead of it. The source made the active and inactive calls. No cut-off for these calls is given here.

Columns and labels:
[1] = system: L6; experiment: Induction of glucose uptake in rat L6 cells assessed as fold increase by measuring 2-NBDG uptake at 25 uM preincubated in high glucose medium for 48 hrs followed by compound addition and measured after 24 hrs; type: functional
[2] = system: L6; experiment: Induction of glucose uptake in rat L6 cells assessed as fold increase by measuring 2-NBDG uptake at 2.5 uM preincubated in high glucose medium for 48 hrs followed by compound addition and measured after 24 hrs; type: functional
[3] = system: L6; experiment: Induction of glucose uptake in rat L6 cells assessed as fold increase by measuring 2-NBDG uptake at 0.25 uM preincubated in high glucose medium for 48 hrs followed by compound addition and measured after 24 hrs; type: functional
[4] = molecular target: T1, Serine/threonine-protein kinase STK11 (Rattus norvegicus) (UniProt D4AE59); experiment: Activation of LKB1 in rat L6 cells assessed as fold increase in phosphorylation at Ser428 at 10 uM incubated for 24 hrs by Western blot analysis; type: cell-based
T1 sequence (whole entry): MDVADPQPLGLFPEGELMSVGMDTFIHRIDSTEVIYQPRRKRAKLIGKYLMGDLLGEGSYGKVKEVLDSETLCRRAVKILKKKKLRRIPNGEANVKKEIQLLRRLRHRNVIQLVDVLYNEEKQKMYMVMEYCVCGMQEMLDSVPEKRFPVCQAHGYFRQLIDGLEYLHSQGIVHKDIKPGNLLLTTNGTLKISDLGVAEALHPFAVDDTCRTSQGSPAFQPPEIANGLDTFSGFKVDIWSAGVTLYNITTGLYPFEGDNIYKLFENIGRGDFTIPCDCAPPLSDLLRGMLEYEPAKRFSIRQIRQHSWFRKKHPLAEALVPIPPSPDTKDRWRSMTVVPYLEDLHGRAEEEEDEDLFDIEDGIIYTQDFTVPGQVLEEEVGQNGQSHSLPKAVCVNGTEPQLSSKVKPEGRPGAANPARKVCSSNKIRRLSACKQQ

[5] = molecular target: T1, Serine/threonine-protein kinase STK11 (Rattus norvegicus); experiment: Activation of LKB1 in rat L6 cells assessed as fold increase in phosphorylation at Ser428 at 25 uM incubated for 24 hrs by Western blot analysis; type: cell-based; settings: filed as activator
[6] = molecular target: T2, AMP-activated protein kinase, AMPK (Rattus norvegicus) (UniProt P54645+Q09137+P80386+P80385+Q9QZH4+Q6V7V4+D4A7E4); experiment: Activation of AMPK phosphorylation in rat L6 cells incubated for 24 hrs by Western blot analysis; type: cell-based; settings: filed as activator, dose 0.6-9.31 µM
[7] = molecular target: T2, AMP-activated protein kinase, AMPK (Rattus norvegicus); experiment: Activation of AMPK phosphorylation at Thr172 residue in rat L6 cells assessed as fold increase at 0.25 uM incubated for 24 hrs by Western blot analysis (reference value: 0.6); type: cell-based; settings: filed as activator
[8] = molecular target: T2, AMP-activated protein kinase, AMPK (Rattus norvegicus); experiment: Activation of AMPK phosphorylation at Thr172 residue in rat L6 cells assessed as fold increase at 10 uM incubated for 24 hrs by Western blot analysis (reference value: 0.6); type: cell-based; settings: filed as activator
[9] = system: L6; experiment: Inhibition of AKT phosphorylation at Ser473 in rat L6 cells assessed as fold reduction at 0.1 uM incubated for 24 hrs by Western blot analysis (reference value: 1.1); type: cell-based
[10] = system: L6; experiment: Inhibition of AKT phosphorylation at Ser473 in rat L6 cells assessed as fold reduction at 0.25 uM incubated for 24 hrs by Western blot analysis (reference value: 1.1); type: cell-based
[11] = molecular target: T1, Serine/threonine-protein kinase STK11 (Rattus norvegicus); experiment: Activation of LKB1 in rat L6 cells assessed as fold increase in phosphorylation at Ser428 at 0.1 uM incubated for 24 hrs by Western blot analysis (reference value: 4.6); type: cell-based; settings: filed as activator
[12] = molecular target: T1, Serine/threonine-protein kinase STK11 (Rattus norvegicus); experiment: Activation of LKB1 in rat L6 cells assessed as fold increase in phosphorylation at Ser428 at 0.25 uM incubated for 24 hrs by Western blot analysis (reference value: 4.6); type: cell-based; settings: filed as activator
[13] = molecular target: T1, Serine/threonine-protein kinase STK11 (Rattus norvegicus); experiment: Activation of LKB1 in rat L6 cells assessed as fold increase in phosphorylation at Ser428 at 0.5 uM incubated for 24 hrs by Western blot analysis (reference value: 4.6); type: cell-based; settings: filed as activator
[14] = molecular target: T1, Serine/threonine-protein kinase STK11 (Rattus norvegicus); experiment: Activation of LKB1 in rat L6 cells assessed as fold increase in phosphorylation at Ser428 at 1 uM incubated for 24 hrs by Western blot analysis (reference value: 4.6); type: cell-based; settings: filed as activator
[15] = molecular target: T1, Serine/threonine-protein kinase STK11 (Rattus norvegicus); experiment: Activation of LKB1 in rat L6 cells assessed as fold increase in phosphorylation at Ser428 at 2.5 uM incubated for 24 hrs by Western blot analysis (reference value: 4.6); type: cell-based; settings: filed as activator
[16] = molecular target: T1, Serine/threonine-protein kinase STK11 (Rattus norvegicus); experiment: Activation of LKB1 in rat L6 cells assessed as fold increase in phosphorylation at Ser428 at 5 uM incubated for 24 hrs by Western blot analysis (reference value: 4.6); type: cell-based; settings: filed as activator
[17] = molecular target: T1, Serine/threonine-protein kinase STK11 (Rattus norvegicus); experiment: Activation of LKB1 in rat L6 cells assessed as fold increase in phosphorylation at Ser428 at 10 uM incubated for 24 hrs by Western blot analysis (reference value: 4.6); type: cell-based; settings: filed as activator
[18] = system: L6; experiment: Inhibition of AKT phosphorylation at Ser473 in rat L6 cells assessed as fold reduction at 0.5 uM incubated for 24 hrs by Western blot analysis (reference value: 1.1); type: cell-based
[19] = system: L6; experiment: Inhibition of AKT phosphorylation at Ser473 in rat L6 cells assessed as fold reduction at 1 uM incubated for 24 hrs by Western blot analysis (reference value: 1.1); type: cell-based
[20] = system: L6; experiment: Inhibition of AKT phosphorylation at Ser473 in rat L6 cells assessed as fold reduction at 2.5 uM incubated for 24 hrs by Western blot analysis (reference value: 1.1); type: cell-based
[21] = system: L6; experiment: Inhibition of AKT phosphorylation at Ser473 in rat L6 cells assessed as fold reduction at 5 uM incubated for 24 hrs by Western blot analysis (reference value: 1.1); type: cell-based
[22] = system: L6; experiment: Inhibition of AKT phosphorylation at Ser473 in rat L6 cells assessed as fold reduction at 10 uM incubated for 24 hrs by Western blot analysis (reference value: 1.1); type: cell-based
[23] = molecular target: T2, AMP-activated protein kinase, AMPK (Rattus norvegicus); experiment: Activation of AMPK phosphorylation at Thr172 residue in rat L6 cells assessed as fold increase at 0.1 uM incubated for 24 hrs by Western blot analysis (reference value: 0.6); type: cell-based; settings: filed as activator
[24] = molecular target: T2, AMP-activated protein kinase, AMPK (Rattus norvegicus); experiment: Activation of AMPK phosphorylation at Thr172 residue in rat L6 cells assessed as fold increase at 0.5 uM incubated for 24 hrs by Western blot analysis (reference value: 0.6); type: cell-based; settings: filed as activator
[25] = molecular target: T2, AMP-activated protein kinase, AMPK (Rattus norvegicus); experiment: Activation of AMPK phosphorylation at Thr172 residue in rat L6 cells assessed as fold increase at 1 uM incubated for 24 hrs by Western blot analysis (reference value: 0.6); type: cell-based; settings: filed as activator
[26] = molecular target: T2, AMP-activated protein kinase, AMPK (Rattus norvegicus); experiment: Activation of AMPK phosphorylation at Thr172 residue in rat L6 cells assessed as fold increase at 2.5 uM incubated for 24 hrs by Western blot analysis (reference value: 0.6); type: cell-based; settings: filed as activator
[27] = molecular target: T2, AMP-activated protein kinase, AMPK (Rattus norvegicus); experiment: Activation of AMPK phosphorylation at Thr172 residue in rat L6 cells assessed as fold increase at 5 uM incubated for 24 hrs by Western blot analysis (reference value: 0.6); type: cell-based; settings: filed as activator
[28] = Volume of distribution at steady state in C57BL/6 mouse at 5 mg/kg, iv; type: ADME, organism-based; settings: in vivo, read-out: Vdss
[29] = Clearance in C57BL/6 mouse at 5 mg/kg, iv; type: ADME, organism-based; settings: in vivo
[30] = Half life in C57BL/6 mouse at 5 mg/kg, iv; type: ADME, organism-based; settings: in vivo
[31] = Tmax in C57BL/6 mouse at 25 mg/kg, po; type: ADME, organism-based; settings: in vivo
[32] = Cmax in C57BL/6 mouse at 25 mg/kg, po; type: ADME, organism-based; set-up: dose 25 mg/kg, route po; settings: in vivo
[33] = Half life in C57BL/6 mouse at 25 mg/kg, po; type: ADME, organism-based; settings: in vivo
[34] = Oral bioavailability in C57BL/6 mouse at 25 mg/kg; type: ADME, organism-based; settings: in vivo
[35] = Half life in C57BL/6 mouse blood; type: ADME, tissue-based
[36] = system: INS-1E; experiment: Anti-hyperglycemic activity in rat INS-1E cells assessed as insulin secretion […] after 24 hrs; type: functional, cell-based
[37] = system: INS-1E; experiment: Anti-hyperglycemic activity in rat INS-1E cells assessed as glucose stimulated insulin secretion at 1 to 2 uM after 24 hrs; type: functional, cell-based; settings: dose 1-2 µM
[38] = system: INS-1E; experiment: Anti-hyperglycemic activity in rat INS-1E cells assessed as basal insulin secretion after 24 hrs; type: functional, cell-based
[39] = system: INS-1E; experiment: Anti-hyperglycemic activity in rat INS-1E cells assessed as total intracellular insulin secretion at 2 uM after 24 hrs; type: functional, cell-based
[40] = molecular target: T2, AMP-activated protein kinase, AMPK (Rattus norvegicus); experiment: Activation of AMPK phosphorylation in rat INS-1E cells incubated for 24 hrs; type: cell-based; settings: filed as activator, dose 0.5-2 µM
[41] = molecular target: T2, AMP-activated protein kinase, AMPK (Rattus norvegicus); experiment: Activation of AMPK phosphorylation in rat INS-1E beta-cells at 2 uM incubated for 24 hrs; type: cell-based; settings: filed as activator

SMILES: c1ccc(-c2cc3cc(C4SCCCCS4)ccc3o2)cc1
fold change (FC) [1]: 1.1 | fold change (FC) [2]: 1 | fold change (FC) [3]: 1

SMILES: c1ccc(C2COc3cc(C4SCCCCS4)ccc3O2)cc1 (stereo not drawn)
fold change (FC) [1]: 1.1 | fold change (FC) [2]: 1 | fold change (FC) [3]: 1

SMILES: COc1cccc(C2CCc3cc(C4SCCCS4)ccc3O2)c1 (stereo not drawn)
fold change (FC) [1]: 1.5 | fold change (FC) [2]: 1 | fold change (FC) [3]: 1

SMILES: c1ccc(C2CCc3cc(C4NCCS4)ccc3O2)cc1 (stereo not drawn)
fold change (FC) [1]: 1.2 | fold change (FC) [2]: 0.9 | fold change (FC) [3]: 1

SMILES: c1ccc(C2COc3cc(C4SCCCS4)ccc3O2)cc1 (stereo not drawn)
fold change (FC) [1]: 1.2 | fold change (FC) [2]: 1 | fold change (FC) [3]: 1

SMILES: O=C(NCCSC(SCCNC(=O)OCc1ccccc1)c1ccc2c(c1)CCC(c1ccccc1)O2)OCc1ccccc1 (stereo not drawn)
fold change (FC) [1]: 1.1 | fold change (FC) [2]: 1.1 | fold change (FC) [3]: 0.9

SMILES: O=C(O)CCSC(SCCC(=O)O)c1ccc2c(c1)CCC(c1ccccc1)O2 (stereo not drawn)
fold change (FC) [1]: 1.2 | fold change (FC) [2]: 1.1 | fold change (FC) [3]: 0.9

Activity [4]: 30% | Activity [5]: 80%
SMILES: c1ccc(C2CCc3cc(C4SCCCCS4)ccc3O2)cc1 (stereo not drawn)

SMILES: c1cncc(C2CCc3cc(C4SCCCS4)ccc3O2)c1 (stereo not drawn)
fold change (FC) [1]: 1.3 | fold change (FC) [2]: 1 | fold change (FC) [3]: 1

SMILES: COc1ccc(C2CCc3cc(C4SCCCCS4)ccc3O2)cc1 (stereo not drawn)
fold change (FC) [1]: 2.2 | fold change (FC) [2]: 1.9 | fold change (FC) [3]: 1.4

Activity [6]: Dose-Dependent Effect | fold change (FC) [7]: 2.33 | fold change (FC) [8]: 9 | fold change (FC) [11]: 5.56 | fold change (FC) [12]: 5.33 | fold change (FC) [13]: 5.25 | fold change (FC) [14]: 5.71 | fold change (FC) [15]: 4.1 | fold change (FC) [16]: 4.78 | fold change (FC) [17]: 5 | fold change (FC) [23]: 0.5 | fold change (FC) [24]: 1.33 | fold change (FC) [25]: 1.58 | fold change (FC) [26]: 5.11 | fold change (FC) [27]: 6.32 | Vd [28]: 1.23 L/kg | clearance [29]: 31.2 mL/min/kg | half-life [30]: 49.6 min | Tmax [31]: 30 min | Cmax [32]: 7630 ng/mL | half-life [33]: 66.6 min | bioavailability [34]: 99% | half-life [35]: 66.6 min | Activity [40]: Dose-Dependent Effect | Activity [41]: Active
SMILES: c1cc(C2CCc3cc(C4SCCCS4)ccc3O2)ccn1 (stereo not drawn)
fold change (FC) [1]: 1.1 | fold change (FC) [2]: 1.2 | fold change (FC) [3]: 1.8 | fold change (FC) [9]: 1.1 | fold change (FC) [10]: 0.22 | fold change (FC) [18]: 0.12 | fold change (FC) [19]: 0.3 | fold change (FC) [20]: 0.18 | fold change (FC) [21]: 0.25 | fold change (FC) [22]: 0.18 | Activity [36]: Dose-Dependent Effect | Activity [37]: Active | Activity [38]: inactive | Activity [39]: inactive
